Earlier results as cited in publication PMC12805357, “Cooperative ligand binding in a bacterial heme-based oxygen sensor” (The Journal of Biological Chemistry, 2025).

Legend:
[1] = sperm whale myoglobin
[2] = design: method as in earlier work; conditions: myoglobins; ref 7 of the supplement (Faulkner et al., 1995)

In the case of “sperm whale myoglobin (swMb): sperm whale myoglobin, literature comparison protein”, the “n (Hill coefficient), O2 binding” value [1] is given as 0.95 ± 0.05, the Kd ([1]; read-out: Kd, equilibrium oxygen affinity) is given as 0.83 to 1.5 µM and the “Midpoint 1 (mV vs SHE)” value [2] is given as 47 mV vs SHE.
